According to ChEMBL document CHEMBL3132768, “Design, synthesis and biological evaluation of TAR and cTAR binders as HIV-1 nucleocapsid inhibitors” (Medchemcomm, 2013):
Activity calls are given as the source filed them. No cut-off for these calls is given here.

How the values were obtained:
[1] = Octanol-water partition co-efficient, log P of the compound by shake flask method; format: physicochemical
Nucleic Acid [2] = test: Binding affinity to HIV1 TAR/cTAR RNA/DNA duplex assessed as change in melting temperature by […]; format: nucleic-acid assay; details: Human immunodeficiency virus 1
Nucleic Acid [3] = test: Binding affinity to HIV1 TAR RNA assessed as change in melting temperature by […]; format: nucleic-acid assay; details: Human immunodeficiency virus 1
[4] = Inhibition of NC-induced HIV1 TAR destabilization assessed as change in melting temperature by fluorescence quenching assay; parameters: species or system Human immunodeficiency virus 1
Jurkat [5] = test: Cytotoxicity against human Jurkat cells up to 100 uM after 72 hrs by MTT assay; format: cell-based
[6] = tested on: Human immunodeficiency virus 1; test: Antiviral activity against HIV1 infected in human Jurkat cells assessed as inhibition of viral replication after 3 to 4 days; format: functional, organism-based
[7] = Inhibition of NC-induced HIV1 cTAR destabilization assessed as change in melting temperature by fluorescence quenching assay; parameters: species or system Human immunodeficiency virus 1
[8] = tested on: Human immunodeficiency virus 1; test: Binding affinity to HIV1 cTAR DNA assessed as change in melting temperature by […]
[9] = Inhibition of NC-induced HIV1 TAR/cTAR annealing assessed as change in melting temperature preincubated for 15 mins before NC addition measured after 15 mins by gel electrophoresis; parameters: species or system Human immunodeficiency virus 1
[10] = tested on: Human immunodeficiency virus 1; test: Antiviral activity against HIV1 infected in human Jurkat cells assessed as inhibition of viral replication by CAT gene-based transcomplementation assay; format: functional, organism-based
Jurkat [11] = test: Drug uptake in human Jurkat cells at 100 uM after 3 hrs by spectrophotometry; format: ADME, cell-based

| SMILES | logP [1] | ΔTm (Nucleic Acid [2]) | ΔTm (Nucleic Acid [3]) | IC50 [4] | IC50 [7] | ΔTm [8] | IC50 [9] | Drug uptake (Jurkat [11]) | Activity (Jurkat [5]) | Activity [6] | Activity [10] |
| --- | --- | --- | --- | --- | --- | --- | --- | --- | --- | --- | --- |
| NCC(N)C(=O)NCCC(=O)Nc1ccc2c(c1)C(=O)c1ccc(NC(=O)CCNC(=O)C(N)CN)cc1C2=O.O=C(O)C(F)(F)F.O=C(O)C(F)(F)F.O=C(O)C(F)(F)F.O=C(O)C(F)(F)F (stereo unspecified) | -2.56 | 0.28 °C | 2.38 °C | 21.4 µM | 22.8 µM | 1.92 °C | – | – | Non-toxic | inactive | – |
| NCCC(=O)NCCC(=O)Nc1ccc2c(c1)C(=O)c1ccc(NC(=O)CCNC(=O)CCN)cc1C2=O.O=C(O)C(F)(F)F.O=C(O)C(F)(F)F | -2.98 | 1.12 °C | 2.79 °C | 10 µM | 11.8 µM | 2.14 °C | 76.8 µM | – | Non-toxic | inactive | – |
| O=C(CCNC(=O)C1CCNCC1)Nc1ccc2c(c1)C(=O)c1ccc(NC(=O)CCNC(=O)C3CCNCC3)cc1C2=O.O=C(O)C(F)(F)F.O=C(O)C(F)(F)F | -2.91 | 0.65 °C | 1.49 °C | 42.9 µM | 36.3 µM | 1.11 °C | 95.8 µM | – | Non-toxic | inactive | – |
| NCCCC(N)C(=O)NCCC(=O)Nc1ccc2c(c1)C(=O)c1ccc(NC(=O)CCNC(=O)C(N)CCCN)cc1C2=O.O=C(O)C(F)(F)F.O=C(O)C(F)(F)F.O=C(O)C(F)(F)F.O=C(O)C(F)(F)F (stereo unspecified) | -2.51 | 3.1 °C | 16.2 °C | 3.2 µM | 2.04 µM | 13.8 °C | 21.9 µM | – | Non-toxic | – | inactive |
| NCC1CCC(C(=O)NCCC(=O)Nc2ccc3c(c2)C(=O)c2ccc(NC(=O)CCNC(=O)C4CCC(CN)CC4)cc2C3=O)CC1.O=C(O)C(F)(F)F.O=C(O)C(F)(F)F (stereo unspecified) | -2.31 | 0.84 °C | 0.97 °C | 17.6 µM | 13.7 µM | 1.86 °C | – | – | Non-toxic | inactive | – |

Second part, led by results:

| logP [1] | ΔTm (Nucleic Acid [2]) | ΔTm (Nucleic Acid [3]) | IC50 [4] | IC50 [7] | ΔTm [8] | IC50 [9] | Drug uptake (Jurkat [11]) | SMILES | Activity (Jurkat [5]) | Activity [6] | Activity [10] |
| --- | --- | --- | --- | --- | --- | --- | --- | --- | --- | --- | --- |
| -2.51 | – | – | – | – | – | 42.3 µM | – | Nc1ccc(CC(N)C(=O)NCCC(=O)Nc2ccc3c(c2)C(=O)c2ccc(NC(=O)CCNC(=O)C(N)Cc4ccc(N)cc4)cc2C3=O)cc1.O=C(O)C(F)(F)F.O=C(O)C(F)(F)F.O=C(O)C(F)(F)F.O=C(O)C(F)(F)F (stereo unspecified) | Non-toxic | inactive | – |
| -2.55 | 1.77 °C | 8.95 °C | 6.3 µM | 7.1 µM | 10.5 °C | 44.1 µM | – | NCCC(N)C(=O)NCCC(=O)Nc1ccc2c(c1)C(=O)c1ccc(NC(=O)CCNC(=O)C(N)CCN)cc1C2=O.O=C(O)C(F)(F)F.O=C(O)C(F)(F)F.O=C(O)C(F)(F)F.O=C(O)C(F)(F)F (stereo unspecified) | Non-toxic | inactive | – |
| – | 1.12 °C | 2.88 °C | 3.71 µM | 3.84 µM | 2.14 °C | 44.5 µM | Not Active | NCCCCC(N)C(=O)NCCC(=O)Nc1ccc2c(c1)C(=O)c1ccc(NC(=O)CCNC(=O)C(N)CCCCN)cc1C2=O (stereo unspecified) | – | – | – |
| -2.91 | 1.12 °C | 2.23 °C | 13.8 µM | 15.4 µM | 2.14 °C | – | – | NC1(C(=O)NCCC(=O)Nc2ccc3c(c2)C(=O)c2ccc(NC(=O)CCNC(=O)C4(N)CCNCC4)cc2C3=O)CCNCC1.O=C(O)C(F)(F)F.O=C(O)C(F)(F)F.O=C(O)C(F)(F)F.O=C(O)C(F)(F)F | Non-toxic | inactive | – |
